Results published in publication PMC5218480 (PLoS ONE, 2017).

System: MV-4-11 cells
Test: Gene expression microarray analysis (Affymetrix PrimeView) and GSEA
Type: cell-based, human
Parameters: RFU PODN (11730768_x_at) / Fold change /veh PODN (11730768_x_at) / RFU LINC00158 (11744669_a_at) / Fold change /veh LINC00158 (11744669_a_at) / RFU DUSP10 (11751237_a_at) / Fold change /veh DUSP10 (11751237_a_at) / RFU ID3 (11757404_x_at) / Fold change /veh ID3 (11757404_x_at) / RFU PLEKHG5 (11737974_s_at) / Fold change /veh PLEKHG5 (11737974_s_at) / RFU LRRC4B (11730491_at) / Fold change /veh LRRC4B (11730491_at) / RFU GIMAP4 (11747438_a_at) / Fold change /veh GIMAP4 (11747438_a_at) / RFU KRT8 (11758183_x_at) / Fold change /veh KRT8 (11758183_x_at) / RFU CNN1 (11734310_a_at) / Fold change /veh CNN1 (11734310_a_at) / RFU VPS37D (11726825_at) / Fold change /veh VPS37D (11726825_at) / RFU C10orf10 (11716522_x_at) / Fold change /veh C10orf10 (11716522_x_at) / RFU KIR2DL2 /// KIR2DL4 /// KIR2DL5A /// KIR2DL5B /// KIR2DS1 /// KIR2DS2 /// KIR2DS3 /// KIR2DS4 /// KIR3DL3 /// KIR3DL3 /// KIR3DS1 (11738374_at) / Fold change /veh KIR2DL2 /// KIR2DL4 /// KIR2DL5A /// KIR2DL5B /// KIR2DS1 /// KIR2DS2 /// KIR2DS3 /// KIR2DS4 /// KIR3DL3 /// KIR3DL3 /// KIR3DS1 (11738374_at) / RFU C1QL1 (11718748_at) / Fold change /veh C1QL1 (11718748_at) / RFU TMPRSS4 (11747572_a_at) / Fold change /veh TMPRSS4 (11747572_a_at) / RFU HAMP (11756126_x_at) / Fold change /veh HAMP (11756126_x_at) / RFU RNFT2 (11725882_a_at) / Fold change /veh RNFT2 (11725882_a_at) / RFU NR4A2 (11747474_a_at) / Fold change /veh NR4A2 (11747474_a_at) / RFU ABCC12 (11746883_a_at) / Fold change /veh ABCC12 (11746883_a_at) / RFU TMEM136 (11760407_x_at) / Fold change /veh TMEM136 (11760407_x_at) / RFU CLDN22 /// WWC2 (11732394_at) / Fold change /veh CLDN22 /// WWC2 (11732394_at) / RFU HLA-DPB1 (11760878_x_at) / Fold change /veh HLA-DPB1 (11760878_x_at) / RFU SPINT1 (11716480_a_at) / Fold change /veh SPINT1 (11716480_a_at) / RFU GAP43 (11754022_s_at) / Fold change /veh GAP43 (11754022_s_at) / RFU A4GNT (11735810_at) / Fold change /veh A4GNT (11735810_at) / RFU PRB3 (11715151_x_at) / Fold change /veh PRB3 (11715151_x_at) / RFU TUBB4B (11761932_at) / Fold change /veh TUBB4B (11761932_at) / RFU CAPN14 (11732068_a_at) / Fold change /veh CAPN14 (11732068_a_at) / RFU TMCC2 (11721928_a_at) / Fold change /veh TMCC2 (11721928_a_at) / RFU IRGQ (11745062_a_at) / Fold change /veh IRGQ (11745062_a_at) / RFU FAM174B (11720279_a_at) / Fold change /veh FAM174B (11720279_a_at) / RFU TMPRSS4 (11748680_a_at) / Fold change /veh TMPRSS4 (11748680_a_at) / RFU FAM212B (11763350_a_at) / Fold change /veh FAM212B (11763350_a_at) / RFU PLEKHG5 (11743358_a_at) / Fold change /veh PLEKHG5 (11743358_a_at) / RFU ZSCAN30 (11745921_a_at) / Fold change /veh ZSCAN30 (11745921_a_at) / RFU CMKLR1 (11741424_a_at) / Fold change /veh CMKLR1 (11741424_a_at) / RFU LOC101060620 /// MAPK8IP1 (11723275_at) / Fold change /veh LOC101060620 /// MAPK8IP1 (11723275_at) / RFU SPTSSB (11747773_x_at) / Fold change /veh SPTSSB (11747773_x_at) / RFU PRSS12 (11739890_at) / Fold change /veh PRSS12 (11739890_at) / RFU BIN1 (11741810_x_at) / Fold change /veh BIN1 (11741810_x_at) / RFU WNT11 (11732464_a_at) / Fold change /veh WNT11 (11732464_a_at) / RFU C10orf10 (11716521_a_at) / Fold change /veh C10orf10 (11716521_a_at) / RFU C5orf56 (11738089_at) / Fold change /veh C5orf56 (11738089_at) / RFU CYB561 (11721691_x_at) / Fold change /veh CYB561 (11721691_x_at) / RFU ANKRD19P (11752326_a_at) / Fold change /veh ANKRD19P (11752326_a_at) / RFU OR2T12 /// OR2T33 /// OR2T8 (11738714_s_at) / Fold change /veh OR2T12 /// OR2T33 /// OR2T8 (11738714_s_at) / RFU VCAN (11748164_a_at) / Fold change /veh VCAN (11748164_a_at) / RFU JSRP1 (11732532_at) / Fold change /veh JSRP1 (11732532_at) / RFU KRTAP10-11 (11738290_x_at) / Fold change /veh KRTAP10-11 (11738290_x_at) / RFU MYO3A (11730013_a_at) / Fold change /veh MYO3A (11730013_a_at) / RFU EBF3 (11725865_a_at) / Fold change /veh EBF3 (11725865_a_at) / RFU CAMK2N1 (11719241_x_at) / Fold change /veh CAMK2N1 (11719241_x_at) / RFU C5orf56 (11738088_a_at) / Fold change /veh C5orf56 (11738088_a_at) / RFU OLFML3 (11715873_a_at) / Fold change /veh OLFML3 (11715873_a_at) / RFU LOC100653217 /// NTM (11731650_a_at) / Fold change /veh LOC100653217 /// NTM (11731650_a_at) / RFU MAPK11 (11762145_a_at) / Fold change /veh MAPK11 (11762145_a_at) / RFU FIZ1 (11724087_x_at) / Fold change /veh FIZ1 (11724087_x_at) / RFU OASL (11726364_x_at) / Fold change /veh OASL (11726364_x_at) / RFU SOX15 (11748057_x_at) / Fold change /veh SOX15 (11748057_x_at) / RFU CD79A (11719716_a_at) / Fold change /veh CD79A (11719716_a_at) / RFU HIST1H1D (11736915_at) / Fold change /veh HIST1H1D (11736915_at) / RFU CASKIN2 (11723855_a_at) / Fold change /veh CASKIN2 (11723855_a_at) / RFU LOC730098 (11760151_x_at) / Fold change /veh LOC730098 (11760151_x_at) / RFU OR4N2 (11742367_at) / Fold change /veh OR4N2 (11742367_at) / RFU PRRT2 (11749266_a_at) / Fold change /veh PRRT2 (11749266_a_at) / RFU SNX32 (11753110_a_at) / Fold change /veh SNX32 (11753110_a_at) / RFU CDHR5 (11726645_a_at) / Fold change /veh CDHR5 (11726645_a_at) / RFU RCAN1 (11760418_a_at) / Fold change /veh RCAN1 (11760418_a_at) / RFU FAM167A (11723789_a_at) / Fold change /veh FAM167A (11723789_a_at) / RFU FAM26E (11764081_at) / Fold change /veh FAM26E (11764081_at) / RFU ISYNA1 (11749810_s_at) / Fold change /veh ISYNA1 (11749810_s_at) / RFU ACY1 (11761880_at) / Fold change /veh ACY1 (11761880_at) / RFU 11764098_at / Fold change /veh 11764098_at / RFU SAMD14 (11745864_x_at) / Fold change /veh SAMD14 (11745864_x_at) / RFU NPB (11741838_a_at) / Fold change /veh NPB (11741838_a_at) / RFU TMPRSS6 (11731388_a_at) / Fold change /veh TMPRSS6 (11731388_a_at) / RFU KRTAP10-2 (11738614_at) / Fold change /veh KRTAP10-2 (11738614_at) / RFU ARHGAP8 /// PRR5-ARHGAP8 (11727945_x_at) / Fold change /veh ARHGAP8 /// PRR5-ARHGAP8 (11727945_x_at) / RFU KRTAP5-7 /// NADSYN1 (11734609_at) / Fold change /veh KRTAP5-7 /// NADSYN1 (11734609_at) / RFU RASL12 (11751679_a_at) / Fold change /veh RASL12 (11751679_a_at) / RFU CDKN2B (11736163_a_at) / Fold change /veh CDKN2B (11736163_a_at) / RFU PRF1 (11729649_at) / Fold change /veh PRF1 (11729649_at) / RFU, ZNF638 /// ZNF638-IT1 / Fold change vs veh, ZNF638 /// ZNF638-IT1 / RFU, PANK3 / Fold change vs veh, PANK3 / RFU, SH3YL1 / Fold change vs veh, SH3YL1 / RFU, ZEB2 / Fold change vs veh, ZEB2 / RFU, NRIP1 / Fold change vs veh, NRIP1 / RFU, PTTG1IP / Fold change vs veh, PTTG1IP / RFU, CAPN2 / Fold change vs veh, CAPN2 / RFU, MED14 / Fold change vs veh, MED14 / RFU, SNORA58 / Fold change vs veh, SNORA58 / RFU, C1orf63 / Fold change vs veh, C1orf63 / RFU, LRRFIP1 / Fold change vs veh, LRRFIP1 / RFU, NDUFAF7 / Fold change vs veh, NDUFAF7 / RFU, SLC12A2 / Fold change vs veh, SLC12A2 / RFU, IBTK / Fold change vs veh, IBTK / RFU, ESF1 / Fold change vs veh, ESF1 / Fold change vs veh, TMEM50B / RFU, TAOK1 / Fold change vs veh, TAOK1 / RFU, ACBD3 / Fold change vs veh, ACBD3 / RFU, TMA16 / Fold change vs veh, TMA16 / RFU, RWDD3 / Fold change vs veh, RWDD3 / RFU, BCAT1 / Fold change vs veh, BCAT1 / RFU, EDEM3 / Fold change vs veh, EDEM3 / RFU, TMEM33 / Fold change vs veh, TMEM33 / RFU, WDR75 / Fold change vs veh, WDR75 / RFU, AHCTF1 / Fold change vs veh, AHCTF1 / RFU, TFRC / Fold change vs veh, TFRC / RFU, ZDHHC17 / Fold change vs veh, ZDHHC17 / RFU, NOM1 / Fold change vs veh, NOM1 / RFU, ARL8B / Fold change vs veh, ARL8B / RFU, ZBTB11 / Fold change vs veh, ZBTB11 / RFU, TAMM41 / Fold change vs veh, TAMM41 / RFU, KIAA1704 /// LOC100996395 / Fold change vs veh, KIAA1704 /// LOC100996395 / RFU, ING1 / Fold change vs veh, ING1 / RFU, TRMT61B / Fold change vs veh, TRMT61B / RFU, FUBP3 / Fold change vs veh, FUBP3 / RFU, TP53 / Fold change vs veh, TP53 / RFU, TNKS2 / Fold change vs veh, TNKS2 / RFU, ZFP14 / Fold change vs veh, ZFP14 / RFU, ACTR2 / Fold change vs veh, ACTR2 / RFU, PPP3R1 / Fold change vs veh, PPP3R1 / RFU, PIK3R1 / Fold change vs veh, PIK3R1 / RFU, HNRNPA1 / Fold change vs veh, HNRNPA1 / RFU, RNF170 / Fold change vs veh, RNF170 / RFU, ZNF28 / Fold change vs veh, ZNF28 / RFU, RNGTT / Fold change vs veh, RNGTT / RFU, OGT / Fold change vs veh, OGT / RFU, BRD1 / Fold change vs veh, BRD1 / RFU, MARS / Fold change vs veh, MARS / RFU, ZNF655 / Fold change vs veh, ZNF655 / RFU, FAHD1 / Fold change vs veh, FAHD1 / RFU, BDP1 / Fold change vs veh, BDP1 / RFU, LRRCC1 / Fold change vs veh, LRRCC1 / RFU, ARID1A / Fold change vs veh, ARID1A / RFU, ZNF146 / Fold change vs veh, ZNF146 / RFU, ZNF330 / Fold change vs veh, ZNF330 / RFU, GPN3 / Fold change vs veh, GPN3 / RFU, C9orf123 / Fold change vs veh, C9orf123 / RFU, N4BP2L2 / Fold change vs veh, N4BP2L2 / RFU, ARFIP1 / Fold change vs veh, ARFIP1 / RFU, FAM179B / Fold change vs veh, FAM179B / RFU, BCL10 / Fold change vs veh, BCL10 / RFU, UHRF1BP1L / Fold change vs veh, UHRF1BP1L / RFU, BET1 / Fold change vs veh, BET1 / RFU, CNOT2 / Fold change vs veh, CNOT2 / RFU, ZNF268 / Fold change vs veh, ZNF268 / Fold change vs veh, ZNF507 / RFU, DGCR2 / Fold change vs veh, DGCR2 / RFU, WDSUB1 / Fold change vs veh, WDSUB1 / Fold change vs veh, HSP90B1 /// MIR3652 / RFU, ADSS / Fold change vs veh, ADSS / RFU, GK / Fold change vs veh, GK / RFU, ZNF148 / Fold change vs veh, ZNF148 / RFU, TAF9 / Fold change vs veh, TAF9 / RFU, SLC1A5 / Fold change vs veh, SLC1A5 / RFU, SLMO2 / Fold change vs veh, SLMO2 / RFU, ABCC4 / Fold change vs veh, ABCC4 / RFU, LOC101060439 /// RAP1B / Fold change vs veh, LOC101060439 /// RAP1B / RFU, RFX7 / Fold change vs veh, RFX7 / RFU, GTPBP10 / Fold change vs veh, GTPBP10 / RFU, CNEP1R1 / Fold change vs veh, CNEP1R1 / RFU, BIVM-ERCC5 /// ERCC5 / Fold change vs veh, BIVM-ERCC5 /// ERCC5 / RFU, ILF3 / Fold change vs veh, ILF3 / RFU 11762660_at / Fold change /veh 11762660_at / RFU VCAN (11757783_s_at) / Fold change /veh VCAN (11757783_s_at) / RFU DDX43 (11728927_at) / Fold change /veh DDX43 (11728927_at) / RFU KRT8 (11758188_x_at) / Fold change /veh KRT8 (11758188_x_at) / RFU NKD1 (11759106_at) / Fold change /veh NKD1 (11759106_at) / RFU SRD5A1 (11742802_a_at) / Fold change /veh SRD5A1 (11742802_a_at) / RFU TPSAB1 /// TPSB2 (11721975_s_at) / Fold change /veh TPSAB1 /// TPSB2 (11721975_s_at) / RFU GSTM3 (11746129_a_at) / Fold change /veh GSTM3 (11746129_a_at) / RFU IL23R (11737362_x_at) / Fold change /veh IL23R (11737362_x_at) / RFU TMEM51 (11727254_a_at) / Fold change /veh TMEM51 (11727254_a_at) / RFU PIWIL2 (11732686_x_at) / Fold change /veh PIWIL2 (11732686_x_at) / RFU ORM1 (11744905_x_at) / Fold change /veh ORM1 (11744905_x_at) / RFU CCDC152 (11743942_at) / Fold change /veh CCDC152 (11743942_at) / RFU ECM1 (11717891_a_at) / Fold change /veh ECM1 (11717891_a_at) / RFU IL23R (11748794_a_at) / Fold change /veh IL23R (11748794_a_at) / RFU TNFAIP8L3 (11732012_x_at) / Fold change /veh TNFAIP8L3 (11732012_x_at) / RFU MBOAT4 (11741988_at) / Fold change /veh MBOAT4 (11741988_at) / RFU 11764193_at / Fold change /veh 11764193_at / RFU TMEM53 (11763286_at) / Fold change /veh TMEM53 (11763286_at) / RFU MAGEB2 (11727129_at) / Fold change /veh MAGEB2 (11727129_at) / RFU TMEM200A (11744735_a_at) / Fold change /veh TMEM200A (11744735_a_at) / RFU CCDC152 (11751479_a_at) / Fold change /veh CCDC152 (11751479_a_at) / RFU FAM211A (11726209_a_at) / Fold change /veh FAM211A (11726209_a_at) / RFU RGS16 (11746705_a_at) / Fold change /veh RGS16 (11746705_a_at) / RFU VCAN (11755009_s_at) / Fold change /veh VCAN (11755009_s_at) / RFU RHOB (11743442_s_at) / Fold change /veh RHOB (11743442_s_at) / RFU RGS16 (11720943_a_at) / Fold change /veh RGS16 (11720943_a_at) / RFU RGS16 (11720944_at) / Fold change /veh RGS16 (11720944_at) / RFU, VPS4B / Fold change vs veh, VPS4B / RFU, CREB1 / Fold change vs veh, CREB1 / RFU, DNAJC13 / Fold change vs veh, DNAJC13 / RFU, GNAQ / Fold change vs veh, GNAQ / RFU, CDK5R1 / Fold change vs veh, CDK5R1 / RFU, ZRANB3 / Fold change vs veh, ZRANB3 / RFU, CUL4A / Fold change vs veh, CUL4A / RFU, CCNY / Fold change vs veh, CCNY / RFU, UFL1 / Fold change vs veh, UFL1 / RFU, COG3 / Fold change vs veh, COG3 / RFU, DIAPH2 / Fold change vs veh, DIAPH2 / RFU, SKA2 / Fold change vs veh, SKA2 / RFU, AFF3 / Fold change vs veh, AFF3 / RFU, LMF1 / Fold change vs veh, LMF1 / RFU, IPO11 / Fold change vs veh, IPO11 / RFU, DFFB / Fold change vs veh, DFFB / RFU, FOXP1 / Fold change vs veh, FOXP1 / RFU, CARD8 / Fold change vs veh, CARD8 / RFU, STRN3 / Fold change vs veh, STRN3 / RFU, ADK / Fold change vs veh, ADK / RFU, RASSF2 / Fold change vs veh, RASSF2 / RFU, WIPF1 / Fold change vs veh, WIPF1 / RFU, LARP1B / Fold change vs veh, LARP1B / RFU, RASA1 / Fold change vs veh, RASA1 / RFU, RB1 / Fold change vs veh, RB1 / RFU, PPFIA1 / Fold change vs veh, PPFIA1 / RFU, MAT2A / Fold change vs veh, MAT2A / RFU, CCT5 / Fold change vs veh, CCT5 / RFU, WDR92 / Fold change vs veh, WDR92 / RFU, CUX1 / Fold change vs veh, CUX1 / RFU, TTC7A / Fold change vs veh, TTC7A / RFU, TMEM135 / Fold change vs veh, TMEM135 / RFU, DEPTOR / Fold change vs veh, DEPTOR / RFU, CPM / Fold change vs veh, CPM / RFU, DNAJB6 / Fold change vs veh, DNAJB6 / RFU, CACNA2D3 / Fold change vs veh, CACNA2D3 / RFU, DTX4 / Fold change vs veh, DTX4 / RFU, TFCP2 / Fold change vs veh, TFCP2 / RFU, GMCL1 /// GMCL1P1 / Fold change vs veh, GMCL1 /// GMCL1P1 / RFU, AEBP2 / Fold change vs veh, AEBP2 / RFU, SNHG1 /// SNORD22 /// SNORD25 /// SNORD26 /// SNORD27 /// SNORD28 /// SNORD29 /// SNORD31 / Fold change vs veh, SNHG1 /// SNORD22 /// SNORD25 /// SNORD26 /// SNORD27 /// SNORD28 /// SNORD29 /// SNORD31 / Fold change (Aza/veh), C12orf56 (ProbeSet 11735607_a_at) / Fold change (ACY-1035/veh), C12orf56 (ProbeSet 11735607_a_at) / Fold change (Aza/veh), FGFR1OP (ProbeSet 11751329_s_at) / Fold change (ACY-1035/veh), FGFR1OP (ProbeSet 11751329_s_at) / Fold change (Aza/veh), VPS36 (ProbeSet 11739960_a_at) / Fold change (ACY-1035/veh), VPS36 (ProbeSet 11739960_a_at) / RFU SYPL1 (11715823_x_at) / Fold change /veh SYPL1 (11715823_x_at) / RFU IGFBP7 (11715501_s_at) / Fold change /veh IGFBP7 (11715501_s_at) / RFU REEP3 (11722064_at) / Fold change /veh REEP3 (11722064_at) / RFU IGLL1 (11728026_x_at) / Fold change /veh IGLL1 (11728026_x_at): dose or concentration left out as unconfirmed
Settings: ProbeSet 11730252_s_at; LIST B

## Nc1ncn([C@@H]2O[C@H](CO)[C@@H](O)[C@H]2O)c(=O)n1 [azacitidine]
  Fold change vs veh, AHCTF1: 0.94
